{"source": "paper PMC7254386", "about": "“Antibacterial PEGylated Solid Lipid Microparticles for Cosmeceutical Purpose: Formulation, Characterization, and Efficacy Evaluation” (Materials, 2020)", "key": {"[1]": {"parameters": "method as in PMID 28659908", "conditions": "cited from earlier work"}, "[2]": {"system": "S. aureus", "conditions": "LB-agar as growth medium; cited from earlier work"}, "[3]": {"assay": "RSV dissolution in different liquid lipophilic excipients", "assay_type": "physicochemical", "text": "Lipophilic excipients must have peculiar features from a physicochemical perspective (i.e., solid at room temperature, chemically inert, high capacity to incorporate drugs, and capable of protecting the latter from physicochemical degradation phenomena) and a biological point of view (i.e., biocompatible, neither carcinogenic or teratogens nor allergenic, and poorly oxidizable) to use them for generating both pharmaceutical and cosmetic formulations. Here, 1-Hexadecanol (EXA) as non-toxic, biocompatible, biodegradable long-chain fatty alcohol was chosen as a solid lipid, as its surfactant characteristic allows this excipient to behave as an emulsifier agent, avoiding the need for further surfactant addition usually required for SLMs preparation using melt dispersion method. In addition, EXA was shown a certain effectiveness in the inhibition of S. aureus growth."}, "[4]": {"assay": "Preliminary RSV solubility tests in buffer solutions", "assay_type": "physicochemical", "conditions": "32 °C, mean ± SE (n = 3)", "protocol": "[…] […] The suspension was kept in a thermostatic water bath (Heidolph MR3001K Hotplate Stirrer with Heidolph EXT3001 Temperature Probe, Heidolph Instruments, Schwabach, Germany) at 32 °C and stirred for 120 min. The samples were then centrifuged for 15 min at 15.000 rpm (mySPIN™ 12 Mini Centrifuge, Thermo Fisher Scientific, Waltham, MA, USA), to remove any precipitate. The supernatant was collected, diluted in methanol, and quantified by a UV-Vis spectrophotometer. The experiments were performed in triplicate."}}, "data": [{"molecule": "Oc1ccc(/C=C/c2cc(O)cc(O)c2)cc1", "note": "[RSV, 3,4′, 5-trihydroxy-trans-stilbene]", "values": [{"measurement": "partition coefficient (LogP)", "setting": "[1]", "result": 3.09}, {"measurement": "Minimal Inhibitory Concentration (MIC)", "setting": "[2]", "result": 1000, "unit": "µg/mL"}, {"measurement": "RSV dissolution (appearance)", "setting": "[3]; Gelucire 62/05, RSV 5% w/w", "result": "Opalescent"}, {"measurement": "RSV dissolution (appearance)", "setting": "[3]; Gelucire 62/05, RSV 10% w/w", "result": "Opalescent"}, {"measurement": "RSV dissolution (appearance)", "setting": "[3]; Gelucire 62/05, RSV 15% w/w", "result": "Opalescent"}, {"measurement": "RSV dissolution (appearance)", "setting": "[3]; Glyceryl Monostearate, RSV 5% w/w", "result": "Opalescent"}, {"measurement": "RSV dissolution (appearance)", "setting": "[3]; Glyceryl Monostearate, RSV 10% w/w", "result": "Opalescent"}, {"measurement": "RSV dissolution (appearance)", "setting": "[3]; Glyceryl Monostearate, RSV 15% w/w", "result": "Opalescent"}, {"measurement": "RSV dissolution (appearance)", "setting": "[3]; Isostearyl Isostearate, RSV 5% w/w", "result": "Opalescent"}, {"measurement": "RSV dissolution (appearance)", "setting": "[3]; Isostearyl Isostearate, RSV 10% w/w", "result": "Opalescent"}, {"measurement": "RSV dissolution (appearance)", "setting": "[3]; Isostearyl Isostearate, RSV 15% w/w", "result": "Opalescent"}, {"measurement": "RSV dissolution (appearance)", "setting": "[3]; Labrafil M-1944, RSV 5% w/w", "result": "Opalescent"}, {"measurement": "RSV dissolution (appearance)", "setting": "[3]; Labrafil M-1944, RSV 10% w/w", "result": "Opalescent"}, {"measurement": "RSV dissolution (appearance)", "setting": "[3]; Labrafil M-1944, RSV 15% w/w", "result": "Opalescent"}, {"measurement": "RSV dissolution (appearance)", "setting": "[3]; Labrafil M-2130, RSV 5% w/w", "result": "Opalescent"}, {"measurement": "RSV dissolution (appearance)", "setting": "[3]; Labrafil M-2130, RSV 10% w/w", "result": "Opalescent"}, {"measurement": "RSV dissolution (appearance)", "setting": "[3]; Labrafil M-2130, RSV 15% w/w", "result": "Opalescent"}, {"measurement": "RSV dissolution (appearance)", "setting": "[3]; Labrasol, RSV 5% w/w", "result": "Clear"}, {"measurement": "RSV dissolution (appearance)", "setting": "[3]; Labrasol, RSV 10% w/w", "result": "Clear"}, {"measurement": "RSV dissolution (appearance)", "setting": "[3]; Labrasol, RSV 15% w/w", "result": "Slightly Opalescent"}, {"measurement": "RSV dissolution (appearance)", "setting": "[3]; Soy Lecithin, RSV 5% w/w", "result": "Opalescent"}, {"measurement": "RSV dissolution (appearance)", "setting": "[3]; Soy Lecithin, RSV 10% w/w", "result": "Opalescent"}, {"measurement": "RSV dissolution (appearance)", "setting": "[3]; Soy Lecithin, RSV 15% w/w", "result": "Opalescent"}, {"measurement": "RSV dissolution (appearance)", "setting": "[3]; Tefose 1500, RSV 10% w/w", "result": "Slightly Opalescent"}, {"measurement": "RSV dissolution (appearance)", "setting": "[3]; Tefose 1500, RSV 15% w/w", "result": "Opalescent"}, {"measurement": "amount of RSV solubilized by Labrasol", "setting": "[3]; liquid lipid Labrasol", "result": "up to 10 % w/w"}, {"measurement": "solubility at 120 min", "setting": "[4]; PBS buffer solution with BSA 5% w/v, pH 7.4, thermodynamic from solid, PBS + BSA 5%", "result": "442 ± 35", "unit": "µg/mL"}, {"measurement": "solubility at 120 min", "setting": "[4]; PBS buffer solution with DMSO 10% v/v, pH 7.4, aqueous with cosolvent or surfactant or cyclodextrin, thermodynamic from solid, PBS + DMSO 10%", "result": "194 ± 10", "unit": "µg/mL"}, {"measurement": "solubility at 120 min", "setting": "[4]; PBS buffer solution with α-CD 0.5% w/v, pH 7.4, aqueous with cosolvent or surfactant or cyclodextrin, thermodynamic from solid, PBS + α-CD 0.5%", "result": "153 ± 8", "unit": "µg/mL"}, {"measurement": "solubility at 120 min", "setting": "[4]; PBS buffer solution with β-CD 2% w/v, pH 7.4, aqueous with cosolvent or surfactant or cyclodextrin, thermodynamic from solid, PBS + β-CD 2%", "result": "886 ± 11", "unit": "µg/mL"}, {"measurement": "solubility at 120 min", "setting": "[4]; citrate buffer solution with β-CD 2% w/v, aqueous with cosolvent or surfactant or cyclodextrin, thermodynamic from solid, Citrate buffer (pH 6.2) + β-CD 2%", "result": "803 ± 3", "unit": "µg/mL"}]}]}
